According to US12209180B2, “Bis-octahydrophenanthrene carboxamide derivatives and protein conjugates thereof for use as LXR agonists” (REGENERON PHARMACEUTICALS, INC., priority 2018, dated 2025):
Where two headings read alike, the source gives them in different places.

B1: H1H21234N-N297Q-LP1 (conjugate)
VH: QVQLQESGPGLVKPSETLSLTCTVTGGSISRNYWSWIRQPPGKGLEWIGYIYYSGSIDYNPSLKSRVTISVDTSKNQFSLKLSSMTAADTAVYYCARDRWNWKYGMDVWGQGTTVIVSS
VL: EIVLTQSPGTLSLSPGERATLSCRASQTVRNNYLAWYHQKPGQAPRLLIYGASSRATGIPDRFSGSGSGTDFTLTISRLEPEDFTVYYCHQYGNSPWTFGQGTKMEIKR

What was measured:
Solubility in water = format: physicochemical
LXR [1] = tested on: T1, LXR; assay: Cell-based LXR luciferase reporter assay, LXR agonists (Example 16a); design: species or system human; details: Table 5a; for EC50: differentiated THP-1/LXR-Luc cells, 48 h; for S/N: highest RLU on dose response curve / RLU in untreated wells
T1 construct: EC50 (M); S/N; other: differentiate
Procedure: LXR agonists described herein were evaluated in a cell-based LXR responsive luciferase reporter assay. To generate the assay cell line, an LXR regulated luciferase reporter gene [Cignal Lenti LXR Reporter (luc) kit (Qiagen, Cat #CLS-001L)] was transduced into THP1 cells and the cells were selected for two weeks in puromycin. The lentivirus expresses the firefly luciferase gene under the control of a basal promoter and tandem repeats of the LXR transcriptional response element. The resulting cell line is referred to as THP1/LXR-Luc cells. For the assay, THP1/LXR-Luc cells were seeded onto 96-well plates at 40,000 cells/well in media containing RPMI supplemented with 10% FBS and penicillin/streptomycin and were then differentiated with 200 nM Phorbol Myristate Acetate (PMA) for 3 days. The media was subsequently removed and replaced with 80 μL of fresh media without PMA. Three-fold serial dilutions of free payloads were prepared in 100% DMSO, transferred to fresh growth media, and 20 μL were added to the cells at a final constant DMSO concentration of 0.2% and free payloads at final concentrations ranging from 100 nM to 0.015 nM. The last well in the plate served as blank control containing only the media and 0.2% DMSO (untreated well) and was plotted as a continuation of the 3-fold serial dilution. Forty-eight hours later, luciferase activity was determined after the addition of One-Glo™ reagent (Promega, Cat #E6130) to each well. Relative light units (RLUs) were measured on an Envision luminometer (PerkinElmer) and EC50 values were determined using a four-parameter logistic equation over a 10-point dose response curve (GraphPad Prism). The signal to noise (S/N) was determined by taking the ratio of the highest RLU on the dose response curve to the RLU in the untreated wells.

THP-1 = assay: Activation of cholesterol efflux (BODIPY-cholesterol) in differentiated THP1 macrophages; format: cell-based, human
Procedure: The ability of anti-MSR1-LXR agonist ADCs to activate cholesterol efflux in a human macrophage cell line (THP-1; ATTC Catalog #TIB-202) were assessed using a fluorescent cholesterol analog. […] Cells were differentiated into macrophages by treatment with 100 nM Phorbol-12 myristate 13-acetate (Sigma, Catalog #P8139), which was added to the media (described above), for 96 hours. […] Percentage of BODIPY-cholesterol efflux was calculated using the following formula: [fluorescence in acceptor media/(fluorescence in acceptor media+fluorescence in cell lysate)]×100.

[2] = Stability of isolated compound in buffer; format: physicochemical; details: HCl salt; even under basic buffer (pH>7)
Procedure: To a solution compound 141 (0.30 g, 0.33 mmol) in acetonitrile (5 mL) was added a solution of HCl in dioxane (4 N, 3 mL). The reaction mixture was stirred at room temperature for 3 hours until Boc was totally removed according to LCMS. The volatiles were removed, and the residue was purified by reversed phase flash chromatography (0-100% acetonitrile in water) to give compound 142 as HCl salt (0.19 g, 73% yield), as a white solid, which was not stable, even under basic buffer (pH>7). ESI m/z: 717.2 (M+H)^+.

LXR [3] = tested on: T1, LXR; assay: THP1/LXR-Luc reporter assay, anti-MSR1 LXR agonist ADCs (Example 17); format: cell-based, human; details: differentiated THP-1/LXR-Luc cells, Table 6
[4] = Homo sapiens, THP-1, after 24 hours, read-out: cholesterol efflux EC50
[5] = Homo sapiens, differentiated THP-1 macrophages, 24-hour treatment, Table 8, read-out: Cholesterol Efflux activation EC50

Row | Molecule | EC50 (LXR [1]) | S/N (LXR [1]) | also measured
1 | CC(C)[C@H](NC(=O)[C@@H](CCCCNC(=O)COC1CCCCCc2c1nnn2CC1OC2OC3C(CO)OC(OC4C(CO)OC(OC5C(CO)OC(OC6C(CO)OC(OC7C(CO)OC(OC1C(O)C2O)C(O)C7O)C(O)C6O)C(O)C5O)C(O)C4O)C(O)C3O)NC(=O)CCOCCOCCOCCOCCNC(=O)CCC(=O)N1Cc2ccccc2C#Cc2ccccc21)C(=O)N[C@@H](CCCNC(N)=O)C(=O)Nc1ccc2c(c1)[C@@]1(C)CCC[C@](C)(C(=O)NC(=O)[C@@]3(C)CCC[C@]4(C)c5cc(N)ccc5CC[C@@H]34)[C@@H]1CC2 (stereo partly drawn) [LP2] | – | – | solubility (Solubility in water): < 100 µg/mL
2 | C[C@]1(C(=O)NC(=O)[C@@]2(C)CCC[C@]3(C)c4cc(O)ccc4CC[C@@H]23)CCC[C@]2(C)c3cc(N)ccc3CC[C@@H]12 [P1, (1S,4aS,10aR)-N-[(1S,4aS,10aR)-6-Amino-1,4a-dimethyl-1,2,3,4,4a,9,10,10a-octahydrophenanthrene-1-carbonyl]-6-hydroxy-1,4a-dimethyl-1,2,3,4,4a,9,10,10a-octahydrophenanthrene-1-carboxamide] | 0.191 nM | 11.9 | EC50 (THP-1; [4]): 0.02 nM; EC50 (THP-1; [5]): 0.02 nM
3 | C[C@]1(C(=O)NC(=O)[C@@]2(C)CCC[C@]3(C)c4cc(N)ccc4CC[C@@H]23)CCC[C@]2(C)c3cc(N)ccc3CC[C@@H]12 [P2, (1S,4aS,10aR)-6-Amino-N-((1S,4aS,10aR)-6-amino-1,4a-dimethyl-1,2,3,4,4a,9,10,10a-octahydrophenanthrene-1-carbonyl)-1,4a-dimethyl-1,2,3,4,4a,9,10,10a-octahydrophenanthrene-1-carboxamide] | 0.45 nM | 13.1 | EC50 (THP-1; [4]): 0.014 nM; EC50 (THP-1; [5]): 0.014 nM
4 | C[C@H](N)C(=O)Nc1ccc2c(c1)[C@@]1(C)CCC[C@](C)(C(=O)NC(=O)[C@@]3(C)CCC[C@]4(C)c5cc(N)ccc5CC[C@@H]34)[C@@H]1CC2 [P13, (1S,4aS,10aR)-N-[(1S,4aS,10aR)-6-amino-1,4a-dimethyl-1,2,3,4,4a,9,10,10a-octahydrophenanthrene-1-carbonyl]-6-[(2S)-2-aminopropanamido]-1,4a-dimethyl-1,2,3,4,4a,9,10,10a-octahydrophenanthrene-1-carboxamide] | 0.0788 nM | 11.9 | –
5 | C[C@]1(C(=O)NC(=O)[C@@]2(C)CCC[C@]3(C)c4cc(NC(=O)CO)ccc4CC[C@@H]23)CCC[C@]2(C)c3cc(N)ccc3CC[C@@H]12 [P14, (1S,4aS,10aR)-N-[(1S,4aS,10aR)-6-(2-hydroxyacetamido)-1,4a-dimethyl-1,2,3,4,4a,9,10,10a-octahydrophenanthrene-1-carbonyl]-6-amino-1,4a-dimethyl-1,2,3,4,4a,9,10,10a-octahydrophenanthrene-1-carboxamide] | 0.152 nM | 10.8 | –
6 | CC(C)(C)OC(=O)Nc1ccc2c(c1)[C@@]1(C)CCC[C@](C)(C(=O)NC(=O)[C@@]3(C)CCC[C@]4(C)c5cc(O)ccc5CC[C@@H]34)[C@@H]1CC2 [P15, tert-Butyl N-[(4bS,8S,8aR)-8-({[(1S,4aS,10aR)-6-hydroxy-1,4a-dimethyl-1,2,3,4,4a,9,10,10a-octahydrophenanthren-1-yl]formamido}carbonyl)-4b,8-dimethyl-4b,5,6,7,8,8a,9,10-octahydrophenanthren-3-yl]carbamate] | 72.9 nM | 8.8 | –
7 | C[C@H](NC(=O)[C@@H](N)CCC(=O)O)C(=O)Nc1ccc2c(c1)[C@@]1(C)CCC[C@](C)(C(=O)NC(=O)[C@@]3(C)CCC[C@]4(C)c5cc(O)ccc5CC[C@@H]34)[C@@H]1CC2 [P16, (4S)-4-Amino-4-{[(1S)-1-{[(4bS,8S,8aR)-8-({[(1S,4aS,10aR)-6-hydroxy-1,4a-dimethyl-1,2,3,4,4a,9,10,10a-octahydrophenanthren-1-yl]formamido}carbonyl)-4b,8-dimethyl-4b,5,6,7,8,8a,9,10-octahydrophenanthren-3-yl]carbamoyl}ethyl]carbamoyl}butanoic acid] | 0.508 nM | 11.5 | –
8 | C[C@]1(C(=O)NC(=O)[C@@]2(C)CCC[C@]3(C)c4cc(NC(=O)CO)ccc4CC[C@@H]23)CCC[C@]2(C)c3cc(O)ccc3CC[C@@H]12 [P17, (1S,4aS,10aR)-N-[(1S,4aS,10aR)-6-(2-hydroxyacetamido)-1,4a-dimethyl-1,2,3,4,4a,9,10,10a-octahydrophenanthrene-1-carbonyl]-6-hydroxy-1,4a-dimethyl-1,2,3,4,4a,9,10,10a-octahydrophenanthrene-1-carboxamide] | 1.03 nM | 12.5 | –
9 | C[C@]1(C(=O)NC(=O)[C@@]2(C)CCC[C@]3(C)c4cc(NC(=O)COCNC(=O)CN)ccc4CC[C@@H]23)CCC[C@]2(C)c3cc(O)ccc3CC[C@@H]12 [P18, (1S,4aS,10aR)-N-[(1S,4aS,10aR)-6-{2-[(2-aminoacetamido)methoxy]acetamido}-1,4a-dimethyl-1,2,3,4,4a,9,10,10a-octahydrophenanthrene-1-carbonyl]-6-hydroxy-1,4a-dimethyl-1,2,3,4,4a,9,10,10a-octahydrophenanthrene-1-carboxamide] | 2.78 nM | 11.5 | –
10 | C[C@]1(C(=O)NC(=O)[C@@]2(C)CCC[C@]3(C)c4cc(N)c(O)cc4CC[C@@H]23)CCC[C@]2(C)c3cc(O)ccc3CC[C@@H]12 [P19, (1S,4aS,10aR)-N-[(1S,4aS,10aR)-6-amino-7-hydroxy-1,4a-dimethyl-1,2,3,4,4a,9,10,10a-octahydrophenanthrene-1-carbonyl]-6-hydroxy-1,4a-dimethyl-1,2,3,4,4a,9,10,10a-octahydrophenanthrene-1-carboxamide] | 0.564 nM | 11.4 | –
11 | CNCCN(CCOCCO)C(=O)Oc1ccc2c(c1)[C@@]1(C)CCC[C@](C)(C(=O)NC(=O)[C@@]3(C)CCC[C@]4(C)c5cc(N)ccc5CC[C@@H]34)[C@@H]1CC2.Cl.Cl [compound 142, (4bS,8S,8aR)-8-((1S,4aS,10aR)-6-Amino-1,4a-dimethyl-1,2,3,4,4a,9,10,10a-octahydrophenanthrene-1-carbonylcarbamoyl)-4b,8-dimethyl-4b,5,6,7,8,8a,9,10-octahydrophenanthren-3-yl 2-(2-hydroxyethoxy)ethyl(2-(methylamino)ethyl)carbamate] | – | – | stability [2]: not stable
12 | B1 | – | – | EC50 (LXR [3]): 0.738 nM; S/N (LXR [3]): 11.8; EC50 (THP-1; after 24 hours, read-out: cholesterol efflux EC50): 0.098 nM
